Key:
alkaline phosphatase [1] = test: Alternative cationic aromatic compounds, Imax on Turner 20/20e luminometer; conditions: compound used as cationic aromatic compound (CAC) in the formulation
[2] = system: Beckman Coulter System Check ALP; test: Stability of chemiluminescent compounds I in two buffer systems, signal RLU of samples stored at two temperatures; assay type: biochemical
Experimental: 3.25 mg/L Lucigenin, 10 mg/L Sodium Sulfite. The second was based on the present invention and included AMPD 0.1 M pH 9.70 containing 0.5 g/L STS, 1 g/L PEG (Mw=35,000), 3.25 mg/L Lucigenin, 10 mg/L Sodium Sulfite. Various chemiluminescent compounds I shown below were added to 200 mL aliquots of each buffer at 0.15 g/L.
Each formulation was split into ˜100 mL halves with one kept at ˜5° C. and the other kept at −30° C.
Material was tested periodically over two weeks measuring the relative change in signal RLU between the two storage conditions. Formulations were tested in 96-well plates by comparing samples at stored at two temperatures to reduce the variability associated with enzymes/temperature/day to day. The samples were incubated at 37° C. for 30 minutes on the instrument 20 uL of enzyme (prepared by mixing 1 mL of Beckman Coulter System Check ALP with 640 mL of the Sample Diluent Buffer) were injected into 200 uL of formulation. Kinetic signal was measured at ˜29 seconds after injection of ALP solution. 15-16 data points (wells) were measured for each Buffer/Temperature/Time point (Well A1 is excluded due to variation in injection volume).

alkaline phosphatase [3] = test: Stability Test A: luminescence of the AP substrate formulation in a micro-titer plate after injection of AP; assay type: biochemical; conditions: 50% more of the named component added to a single lot of APS-5
Experimental: An aliquot (100 μL) of AP substrate formulation was added to a micro-titer plate well (8 replicates for each formulation). The plate was placed in a luminescence plate reader (Luminoskan, Labtech) and to each well was injected 20 μL of AP solution (2 ng/mL). Luminescence signal was read after 30 seconds and intergraded for 2 seconds.

Compound | I max RLU (Turner 20/20e luminometer with filter) (alkaline phosphatase [1]) [RLU] | other results
C[n+]1c2ccccc2c(-c2c3ccccc3[n+](C)c3ccc(Cl)cc23)c2cc(Cl)ccc21 | 454 | –
C[n+]1c2ccccc2c(-c2c3ccccc3[n+](C)c3ccc(Cl)cc23)c2ccccc21 | 1600 | –
C[n+]1c2ccccc2c(-c2c3ccccc3cc3ccccc23)c2cc(Cl)ccc21 | 1037 | –
C[n+]1ccc2c(c1-c1c3c(cc[n+]1C)=CCCC=3)=CCCC=2 | 41 | –
C1=c2cc[n+]3c(c2=CCC1)-c1c2c(cc[n+]1CC3)=CCCC=2 | 500 | –
CN1c2ccccc2C(=C(OP(=O)(O)O)Sc2ccccc2)c2ccccc21 [Compound 3] | – | Signal Loss at 30° C. (slope, % loss/Day) ([2]; 0.15 g/L compound in AMPD buffer system (AMPD 0.1 M pH 9.70, STS, PEG 35,000, lucigenin, sodium sulfite)): 0.53% loss/Day; Signal Loss at 30° C. (slope, % loss/Day) ([2]; 0.15 g/L compound in TRIS-Tween buffer system (Tris 0.3 M pH 9.35, SDS, Tween-20, lucigenin, sodium sulfite)): 0.61% loss/Day
CCCCCCCCCCCCOS(=O)(=O)[O-].[Na+] [SDS, sodium dodecyl sulfate] | – | Performance (alkaline phosphatase [3]): 70.5%
O=S([O-])[O-].[Na+].[Na+] [Sodium Sulfite, sodium sulfite] | – | Performance (alkaline phosphatase [3]): 100.1%

— patent US10703971B2, “Chemiluminescent substrates” (Beckman Coulter, Inc., priority 2016, dated 2020)
